The values below are quoted from earlier work in patent publication US6685965B1, “PROCESS FOR STABILIZING LEVOGYRE ASCORBIC ACID (LAA), A STABLE AQUEOUS LAA COMPOSITION, A PROCESS FOR PREPARING A STABLE TOPICAL SOLUTION, AN EMULSION, A VITAMIN PRODUCT, AND A METHOD FOR COSMETIC, PHARMACEUTICAL OR NUTRITIONAL TREATMENT” (Industria E Comercio de Cosmeticos Natura LTDA., priority 1997, dated 2004).

The test system of one data set is human fibroblasts. To be noted: human fibroblasts in vitro, in the presence of LAA.
Data set [1] has as its system glucosaminoglycines, components of the extracellular matrix of the dermis. To be noted: in the presence of LAA.

Regarding `O=C1OC(C(O)CO)C(O)=C1O` (stereo not shown) [LAA, levogyre ascorbic acid], in the data set on human fibroblasts, the “efficiency of mRNA in the translation of the polypeptidic chains of collagen” value is reported as “about 2 times”; the “increase in the synthesis of mRNA (collagens of type I and type III)” value is given as 2 to 3 times. For the same compound, in data set [1], the “increase in deposition of glucosaminoglycines in the extracellular matrix” value was 50% and the “increase in synthesis of glucosaminoglycines” value was 30 to 90%.
